# Legend:
# aldosterone = assay: Aldosterone-antagonistic activity in adrenalectomised rats (urine volume, sodium and potassium excretion); type: in vivo, Female Holtzmann rats; conditions: for Volume (urine volume) in %, based on control animals / [K+] (potassium excretion) in %, based on control animals / [Na+] (sodium excretion) in %, based on control animals: 1 mg/kg p.o., 30 min before aldosterone s.c., urine collected 3 hours, vs animals treated only with aldosterone
# Description: If compounds of formula I are administered to the animals before the treatment with aldosterone, then there is observed, in comparison to animals which are treated only with aldosterone (control animals), a pronounced increase of the sodium excretion (i.e. the sodium retention caused by aldosterone is antagonised), whereas the potassium excretion and the urine volume are influenced to a lesser extent.
# The standard experiment is carried out as follows:
# Female Holtzmann rats (150-180 g) are bilaterally adrenalectomised 70 to 74 hours before the beginning of the experiment. After the operation, the animals receive a customary rat dry feed and 0.9% sodium chloride solution for drinking. 16-17 hours before the beginning of the experiment the feed is removed from the animals, but they can subsequently drink, as before, 0.9% sodium chloride solution ad libitum. At the beginning of the experiment the substance to be tested as an aldosterone-antagonist is administered to the animals by means of a stomach probe. 30 minutes later the animals receive a subcutaneous injection of […] of aldosterone. After a further 90 minutes, the urinary bladders of the animals are emptied by careful suprapubic pressure, whereupon the animals are placed individually in metabolic cages without food and without drink. The urine of the animals is then collected for 3 hours, whereupon their urinary bladders are once more emptied. The spontaneously excreted urine and the remaining urine obtained at the conclusion of the experiment by pressing-out the urinary bladders are collected in graduated centrifuge glasses. Sodium and potassium concentrations in the urine are determined with a flame photometer.
# (§1) The following Table contains results obtained in the previously described experiment with representative compounds of formula I. In this Table there are given for each of the compounds in question the dosage administered (in mg/kg p.o.) as well as the percentage variation in the urine volume, the sodium excretion and the potassium excretion in comparison with the control animals (i.e. in comparison with the animals treated only with aldosterone). Moreover, the Table contains data concerning the acute toxicity of the compounds investigated (LD 50 in mg/kg in the case of single oral administration to mice).
# [1] = Acute toxicity, single oral administration to mice; conditions: mouse, in vivo, single oral administration (p.o.)
# Description: as §1
SMILES,"Volume (urine volume) in %, based on control animals (aldosterone) [%]","[K+] (potassium excretion) in %, based on control animals (aldosterone) [%]","[Na+] (sodium excretion) in %, based on control animals (aldosterone) [%]",LD50 [1] [mg/kg],"excreted urine volume after aldosterone (aldosterone; vs untreated animals, in words)","potassium excretion after aldosterone (aldosterone; vs untreated animals, in words)","sodium excretion after aldosterone (aldosterone; vs untreated animals, in words)"
"CC1N=C(c2ccccc2F)c2cc(C(C)N)ccc2N(C)C1=O (stereo not drawn) [Example 2, 7-(1-aminoethyl)-5-(o-fluorophenyl)-1,3-dihydro-1,3-dimethyl-2H-1,4-benzodiazepin-2-one]",169,102,298,625,–,–,–
CCN1C(=O)CNC(c2ccccc2F)c2cc(C(C)=NO)ccc21 (stereo not drawn) [Example 5],157,87,247,> 5000,–,–,–
"CCN1C(=O)CNC(c2ccccc2F)c2cc(C(C)NCCO)ccc21 (stereo not drawn) [Example 6, 1-ethyl-5-(o-fluorophenyl)-1,3,4,5-tetrahydro-7-/1-[(2-hydroxyethyl)-amino]ethyl/-2H-1,4-benzodiazepin-2-one]",150,93,306,4000,–,–,–
"CCN1C(=O)CNC(c2ccccc2F)c2cc(C(C)N(C)C)ccc21 (stereo not drawn) [Example 7a, 7-[1-(dimethylamino)ethyl]-1-ethyl-5-(o-fluorophenyl)-1,3,4,5-tetrahydro-2H-1,4-benzodiazepin-2-one]",147,90,252,500,–,–,–
"CCN1C(=O)CN=C(c2ccccc2F)c2cc(C(C)OCOC)ccc21 (stereo not drawn) [Example 9a, 1-ethyl-5-(o-fluorophenyl)-1,3-dihydro-7-[1-(methoxymethoxy)ethyl]-2H-1,4-benzodiazepin-2-one]",138,93,359,500,–,–,–
"CN1C(=O)CN=C(c2ccccc2)c2cc(CNC(=O)NCCO)ccc21 [Example 22, 1-[(2,3-dihydro-1-methyl-2-oxo-5-phenyl-1H-1,4-benzodiazepin-7-yl)methyl]-3-(2-hydroxyethyl)urea]",130,82,224,> 5000,–,–,–
"C[C@]12CCC(=O)C=C1CC[C@@H]1[C@@H]2[C@@H](O)C[C@]2(C=O)[C@@H](C(=O)CO)CC[C@@H]12 [aldosterone, reference compound]",–,–,–,–,reduction of the excreted urine volume,increased potassium excretion,pronounced reduction of the sodium excretion
